Source: patent US6133248A, “Polar drug of prodrug compositions with extended shelf-life storage and a method of making thereof” (priority 1998, dated 2000)
Read-outs that look alike come from different tables or passages of the source.

Columns and labels:
[1] = for Kd: 0.02 m tris buffer
Experimental: After sonication and mixing by vortex mixer, the phenytoin-suspended solutions were placed in a shaking, temperature controlled water bath for at least 5 days at 25° C. After equilibration, checked by periodic sampling, the suspensions were filtered through a membrane filter (Acrodisc, PVDF 0.2 μm, Gelman). The filtrate was isolated and diluted with HPLC mobile phase and the concentration of phenytoin was determined by HPLC. This work was performed in duplicate.
This phenomena is illustrated in Scheme (2). The binding constant for the phenytoin/(SBE)7m-β-CD complex, K1 can be calculated by the slope and intercept of the data from FIG. 3 (absence of fosphenytoin) according to Eq 2 (Hiquchi, T and Connors K. A.) […]
K1 =Slope/Intercept(1-Slope) (2)
K2, the binding constant for the fosphenytoin/(SBE)7m-β-CD complex can be calculated according to Eq. 6 as follows; K1 =(St-So')/(St-(St-So'))(Lt-(St-so')-x)
K1 =Slope/So'(1-Slope-x/Lt) (3)
K2 =x/(St'-x)(Lt-(St-So')-x
=(x/Lt)/(St'-x)(1-Slope-x/Lt) (4) […]
x/Lt=1-Slope-Slope/K1 So' (5)
Eq. 4 and Eq. 5 lead to Eqs. 6 and 7, K2 =(1/(St'-x))K1 So'/Slope-So'K1 -1) (6)
≈(1/St')(K1 So'/Slope-So'K1 -1) (7) where various terms are defined in Scheme (2). The term, St'-x, in Eq. 6 represents the free fraction of fosphenytoin in the presence of CD and theoretically should change with increasing CD concentration.

[2] = Arrhenius plot for phenytoin production rate from fosphenytoin; assay type: physicochemical
From the text: These values are higher than those reported previously; 30.8 kcal/mol and also are higher than Ea values reported from most other drug degradation studies (10-30 kcal/mol) (Yoshioka, S. Stability of Drugs and Dosage Forms, Nankodo Co. Ltd., Tokyo, 1995; pp.30-67). One possible explanation for the difference may be the effect of temperature on the pH of tris buffer solutions. […] Consequently, the change of phenytoin production rate can attribute not only to the direct effect of temperature on the kinetics but also the effect of temperature on pH. Since our principal goal was to study the effect of temperature on the stability of some protype formulations, buffer pH values were not adjusted at each temperature.

[3] = 25° C.
From the text: Two different shelf-life criteria were considered; time to exceed phenytoin solubility in the presence and absence of (SBE)7m-β-CD and 0.5% phenytoin production.

[4] = pH values >8.0; cited from earlier work
[5] = literature value; cited from earlier work
[6] = high pH 8.5 formulation, refrigeration; cited from earlier work
[7] = Phenytoin solubility in absence and presence of fosphenytoin and (SBE)7m-β-CD; assay type: physicochemical; settings: 0.02 m tris buffer
Experimental: This work was performed in duplicate.
The fosphenytoin concentration of 80.6 mg/ml (75 mg/ml anhydrous fosphenytoin) was the same as the commercial product. […] The solubility of phenytoin is elevated in the presence of fosphenytoin probably through micellar or complex formation (Anderson et al. J. Pharm. Sci. 74 375-381; Muller et al. Int. J. Pharm. 75 201-209, 1991).

[8] = cited from earlier work
[9] = AHFS Drug Information; cited from earlier work

O=C1NC(c2ccccc2)(c2ccccc2)C(=O)N1COP(=O)(O)O [fosphenytoin]
Kd ([1]; pH 7.4): 25.6 mM | Kd ([1]; pH 8): 29.4 mM | Ea (apparent activation energy), phenytoin production ([2]; pH 7.4): 38.9 kcal/mol | Ea (apparent activation energy), phenytoin production ([2]; pH 8.0): 39.5 kcal/mol | Time without phenytoin precipitation ([3]; 60 mM (SBE)7m-β-CD, either pH): over two years | Physically stable formulations, shelf-life ([3]; pH range 7.4-8.0): greater than two years | Time without phenytoin precipitation ([3]; pH 8.0, 60 mM (SBE)7m-β-CD): at least 17 years | Shelf-life by 0.5% phenytoin production criterion ([3]; with (SBE)7m-β-CD): greater than two year | Kinetics of phenytoin production (0.02M tris, 60° C., pH 7.4 and 8.0): apparent zero-order kinetics | Influence of (SBE)7m-β-CD on phenytoin production rate (30 or 60 mM (SBE)7m-β-CD, fosphenytoin 80.6 mg/ml): did not appear to influence the phenytoin production rate although here was a very slight trend to greater stability with increasing (SBE)7m-β-CD concentration | Kinetics of phenytoin production (all temperatures, CD concentrations and both pH values): pseudo zero-order kinetics | Degradant peaks (phenytoin vs earlier eluting peak) (pH 7.4): phenytoin was the major degradant peak observed | Rate of Phenytoin Production (pH 7.4, 25° C., 0 mM CD): 0.160 µg/mL/day | Rate of Phenytoin Production (pH 7.4, 25° C., 60 mM CD): 0.133 µg/mL/day | Rate of Phenytoin Production (pH 7.4, 37° C., 60 mM CD): 0.993 µg/mL/day | Rate of Phenytoin Production (pH 7.4, 50° C., 60 mM CD): 21.37 µg/mL/day | Rate of Phenytoin Production (pH 7.4, 60° C., 0 mM CD): 111.8 µg/mL/day | Degradant peaks (phenytoin vs earlier eluting peak) (pH 8): this peak had an area comparable to that of phenytoin | Rate of Phenytoin Production (pH 8.0, 25° C., 0 mM CD): 0.083 µg/mL/day | Rate of Phenytoin Production (pH 8.0, 25° C., 30 mM CD): 0.088 µg/mL/day | Rate of Phenytoin Production (pH 8.0, 25° C., 60 mM CD): 0.075 µg/mL/day | Rate of Phenytoin Production (pH 8.0, 37° C., 0 mM CD): 0.634 µg/mL/day | Rate of Phenytoin Production (pH 8.0, 37° C., 30 mM CD): 0.600 µg/mL/day | Rate of Phenytoin Production (pH 8.0, 37° C., 60 mM CD): 0.562 µg/mL/day | Rate of Phenytoin Production (pH 8.0, 50° C., 30 mM CD): 14.43 µg/mL/day | Rate of Phenytoin Production (pH 8.0, 50° C., 60 mM CD): 13.82 µg/mL/day | Rate of Phenytoin Production (pH 8.0, 60° C., 0 mM CD): 67.20 µg/mL/day | Stability at higher pH [4]: more unstable | Ea reported previously [5]: 30.8 kcal/mol | Shelf-life of the prodrug product [6]: two years

O=C1NC(=O)C(c2ccccc2)(c2ccccc2)N1 [phenytoin]
solubility at 120 h ([7]; pH 7.4, aqueous buffer, pH 7.4, 0 mM (SBE)7m-β-CD, 25° C., read-out: Phenytoin Conc. (Solubility Criteria)): 49.8 µg/mL | solubility at 120 h ([7]; pH 7.4, aqueous buffer, pH 7.4, 60 mM (SBE)7m-β-CD, 25° C., read-out: Phenytoin Conc. (Solubility Criteria)): 451 µg/mL | solubility at 120 h ([7]; pH 7.4, aqueous buffer, pH 7.4, 25° C., absence of fosphenytoin, read-out: Solubility of phenytoin): 18.1 µg/mL | solubility at 120 h ([7]; pH 7.4, aqueous buffer, pH 7.4, 25° C., presence of fosphenytoin 80.6 mg/ml, read-out: Solubility of phenytoin): 49.8 µg/mL | solubility at 120 h ([7]; pH 8, aqueous buffer, pH 8.0, 0 mM (SBE)7m-β-CD, 25° C., read-out: Phenytoin Conc. (Solubility Criteria)): 61.9 µg/mL | solubility at 120 h ([7]; pH 8, aqueous buffer, pH 8.0, 30 mM (SBE)7m-β-CD, 25° C., read-out: Phenytoin Conc. (Solubility Criteria)): 274 µg/mL | solubility at 120 h ([7]; pH 8, aqueous buffer, pH 8.0, 60 mM (SBE)7m-β-CD, 25° C., read-out: Phenytoin Conc. (Solubility Criteria)): 476 µg/mL | solubility at 120 h ([7]; pH 8, aqueous buffer, pH 8.0, 25° C., presence of fosphenytoin 80.6 mg/ml, read-out: Solubility of phenytoin): 61.9 µg/mL | solubility at 120 h ([7]; pH 8, aqueous buffer, pH 8.0, 25° C., printed 'in the absence of phenytoin', read-out: Solubility of phenytoin): 27.5 µg/mL | Kd ([1]; pH 7.4): 0.932 mM | Kd ([1]; pH 8): 1.26 mM | Type of phase solubility diagram ([1]; 25° C., pH 7.4 and 8.0, presence or absence of 80.6 mg/ml fosphenytoin): AL-type | Solubility enhancement in presence of fosphenytoin vs absence ([1]; (SBE)7m-β-CD, 25° C.): lower than that in the absence of fosphenytoin | Solubility ([8]; pH values <8): 20 to 25 µg/mL | Intrinsic aqueous solubility ([8]; phenytoin, background): less than 25 μg/ml | pKa value [9]: 8.06-8.33
